Experimental data as given in US9873693B2 (Sunesis Pharmaceuticals, Inc., priority 2006, dated 2018).
pIC50: −log10 of the molar value.

What was measured:
dephosphorylated PDK1 = dephosphorylated PDK1 (Homo sapiens (Human), UniProt O15530); test: PDK1 kinase assay (coupled PDK1/AKT/FAM-crosstide, IMAP); type: biochemical; conditions: 25 nM un-phosphorylated PDK1, 24 μM ATP; read-out: Inhibition of dephospo-PDK1 in vitro IC50
Procedure: A PDK1 kinase assay was performed as follows. PDK1 (amino acids 51-360) and AKT2 (amino acids 140-467 fused to PIFtide, amino acids […]) were expressed as N-terminally tagged GST fusion proteins in insect cells and purified to greater than 90% homogeneity. PDK1 protein was divided into two fractions, one of which was subsequently dephosphorylated. To generate dephosphorylated PDK1, the PDK1 was reacted with GST-tagged lambda-phosphatase in vitro. GST was subsequently cleaved proteolytically for both phosphorylated and dephosphorylated PDK1. Protein preparations were run on glutathione Sepharose columns to remove GST and GST-tagged lambda-phosphatase, if present. Phosphorylated PDK1 and dephosphorylated PDK1 were verified by mass-spectrometry. Enzyme activity was determined in a coupled PDK1/AKT/FAM-crosstide assay using either phosphorylated or unphosphorylated PDK1 and phosphorylation of FAM-crosstide was determined by standard IMAP protocol (Molecular Devices). For inhibition studies, compounds were titrated 3-fold in DMSO and diluted 40-fold into assay buffer (10 mM Tris HCl pH7.2; 10 mM MgCl2; 0.01% Triton X-100; 1 mM DTT) containing PDK1, AKT2, and FAM-crosstide. (final concentrations: 25 nM un-phosphorylated PDK1 or 0.5 nM phosphorylated PDK1, 30 nM unphosphorylated AKT2, and 100 nM crosstide substrate). The kinase reaction was initiated by adding ATP to a final concentration of 24 μM for both forms of PDK1 and incubated at 25° C. for 30 min. To detect assay product, the kinase reaction was combined with Progressive Binding Solution (1:600 Progressive Binding Reagent, 50% Buffer A, 50% Buffer B, Molecular Devices) in a 1:3 ratio. The mixture was incubated for 2 hours at 25° C. and the plate was scanned on an Analyst AD with excitation at 485 nm and emission at 530 nm. The fluorescence polarization value “P” is defined by the equation below. The value “mP” is generated by multiplying the P value for each reaction well by a factor of 1000. The value “ΔmP” for each well is the mP value for that well minus the mP value for the average negative control. P=(Fpar−Fperp)/(Fpar+Fperp) Eq.:
Where “par” is fluorescence intensity parallel to the excitation plane; and “perp” is fluorescence intensity perpendicular to the excitation plane. ΔmP values were plotted as a function of compound concentration and the data were analyzed with a 4-parameter fit using GraphPad Prism software.

phosphorylated PDK1 = phosphorylated PDK1 (Homo sapiens (Human), UniProt O15530); test: as above; type: biochemical; conditions: 0.5 nM phosphorylated PDK1, 24 μM ATP; read-out: Inhibition of phospo-PDK1 in vitro IC50
Chain of phosphorylated PDK1 (O15530 51-360): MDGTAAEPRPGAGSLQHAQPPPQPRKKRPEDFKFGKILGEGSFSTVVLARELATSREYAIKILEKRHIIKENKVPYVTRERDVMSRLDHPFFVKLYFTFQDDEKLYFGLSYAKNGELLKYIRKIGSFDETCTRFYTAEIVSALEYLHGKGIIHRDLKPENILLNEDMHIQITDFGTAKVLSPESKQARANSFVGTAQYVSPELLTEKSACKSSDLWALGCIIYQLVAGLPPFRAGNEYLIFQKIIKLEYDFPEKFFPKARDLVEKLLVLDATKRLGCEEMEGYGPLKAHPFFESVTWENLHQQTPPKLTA

Chain of dephosphorylated PDK1 (O15530 51-360): as above

Row | SMILES | pIC50 (dephosphorylated PDK1) | pIC50 (phosphorylated PDK1)
1 | COc1ccnc(NCCC#CCNC(=O)c2cccn(Cc3cccc(Cl)c3)c2=O)n1 [Cpd 262] | > 6.30 | > 6.30
2 | O=C(NCCOc1cc(F)c2[nH]c(=O)[nH]c2c1)c1cccn(Cc2ccc(F)c(F)c2)c1=O [Cpd 158] | > 6.30 | 5.00 to 6.30
3 | COc1ccnc(NCCCCCNC(=O)c2cccn(Cc3ccc(Cl)c(Cl)c3)c2=O)n1 [Cpd 104] | > 6.30 | 5.00 to 6.30
4 | CCc1ccnc(NCCC#CCCNC(=O)c2cc(Cl)cn(Cc3cccc(Cl)c3)c2=O)n1 [Cpd 257] | > 6.30 | > 6.30
5 | O=C(NCCOc1cc2[nH]c(=O)[nH]c2cc1F)c1cccn(Cc2ccc(F)c(F)c2)c1=O [Cpd 155] | > 6.30 | 5.00 to 6.30
6 | Cn1c(=O)[nH]c2cc(OCCNC(=O)c3cccn(Cc4ccc(F)c(F)c4)c3=O)ccc21 [Cpd 119, N-(3-(4-chloro-H-pyrrolo[2,3-b]pyridin-3-yl)benzyl)-1-(3,4-difluorobenzyl)-2-oxo-1,2-dihydropyridine-3-carboxamide] | > 6.30 | > 6.30
7 | O=C(NCc1nc(-c2c[nH]c3ncccc23)cs1)c1cc(Cl)cn(Cc2ccc(Cl)cc2)c1=O [Cpd 273] | > 6.30 | > 6.30
8 | O=C(NCc1cccc(-c2c[nH]c3ncccc23)c1)c1cccc(Nc2ccccc2)n1 [Cpd 54] | > 6.30 | > 6.30
9 | COc1ccnc(NCCCCCNC(=O)c2cccn(Cc3ccc(F)c(Cl)c3)c2=O)n1 [Cpd 266] | > 6.30 | 5.00 to 6.30
10 | Nc1ccc(-c2cccc(CNC(=O)c3cccn(Cc4ccc(F)c(F)c4)c3=O)c2)cn1 [Cpd 214] | 5.00 to 6.30 | 
11 | CC(=O)Nc1cc(NCCCCCNC(=O)c2cccn(Cc3cccc(Cl)c3)c2=O)ncn1 [Cpd 99] | 5.00 to 6.30 | < 5.00
12 | O=C(NCc1nc(-c2c[nH]c3ncccc23)c[nH]1)c1cccn(Cc2ccc(F)c(F)c2)c1=O [Cpd 116] | > 6.30 | 5.00 to 6.30
13 | COc1ccnc(NCCCCCNC(=O)c2cccn(C(C)c3ccc(Cl)cc3)c2=O)n1 (stereo not drawn) [Cpd 105] | > 6.30 | 5.00 to 6.30
14 | O=C(NCCSc1ccc2[nH]c(=O)[nH]c2c1)c1cccn(Cc2ccc(F)c(F)c2)c1=O [Cpd 118] | > 6.30 | 5.00 to 6.30
15 | COc1ccnc(NCCC#CCCNC(=O)c2cccn([C@H](C)c3ccc(Cl)cc3)c2=O)n1 [Cpd 259] | > 6.30 | > 6.30
16 | O=C1CC(c2cccc(CNC(=O)c3cccn(Cc4ccc(F)c(F)c4)c3=O)c2)CN1 (stereo not drawn) [Cpd 111] | 5.00 to 6.30 | 5.00 to 6.30
17 | O=C(NS(=O)(=O)c1ccc(-c2c[nH]c3ncccc23)s1)c1cccn(Cc2ccc(F)c(F)c2)c1=O [Cpd 231] | 5.00 to 6.30 | 5.00 to 6.30
18 | COc1ccnc(NCCC#CCCNC(=O)c2cccn(Cc3ccc(Cl)c(Cl)c3)c2=O)n1 [Cpd 255] | > 6.30 | > 6.30
19 | Nc1cnc(Nc2cccc(NC(=O)N3CCCC3)c2)nc1NCCCCCCNC(=O)c1cccn(Cc2cccc(Cl)c2)c1=O [Cpd 249] | > 6.30 | < 5.00
20 | COc1ccnc(NCCC#CCCNC(=O)c2cc(Cl)cn(C(C)c3ccc(Cl)cc3)c2=O)n1 (stereo not drawn) [Cpd 106] | > 6.30 | > 6.30
21 | COc1ccnc(NCCCCCNC(=O)c2cc(Cl)cn(Cc3ccc(Cl)cc3)c2=O)n1 [Cpd 252] | > 6.30 | 5.00 to 6.30
22 | COc1ccnc(NCCC#CCCNC(=O)c2cc(Cl)cn(Cc3ccc(Cl)cc3)c2=O)n1 [Cpd 256] | > 6.30 | 5.00 to 6.30
23 | O=C(NCc1cccc(-c2c[nH]c3ncc(-c4ccco4)cc23)c1)c1cccn(Cc2ccc(F)c(F)c2)c1=O [Cpd 57] | > 6.30 | > 6.30
24 | O=C(NCCCCc1c[nH]c2ncccc12)c1cccn(Cc2cc(F)c(F)c(F)c2)c1=O [Cpd 271] | > 6.30 | > 6.30
25 | O=C(NCc1ncc(-c2c[nH]c3ncccc23)o1)c1cccn(Cc2ccc(F)c(F)c2)c1=O [Cpd 120] | > 6.30 | > 6.30
26 | O=C(NC1(c2nnc(-c3c[nH]c4ncccc34)o2)CC1)c1cccn(Cc2ccc(F)c(F)c2)c1=O [Cpd 281] | > 6.30 | > 6.30
